Measured values as given in patent US9539191B2, “Composition for cosmetic use suitable to produce a pigmentation effect on hair” (Giuliani S.P.A., priority 2013, dated 2017).

Experiments:
[1] = tested on: Tyrosinase; assay: Enzymatic assay of tyrosinase (L-tyrosine substrate, absorbance 280 nm); format: biochemical; details: compound 5 mM; for Increment in enzymatic activity (%): % enzymatic activity - 100; for Enzymatic activity (%): compared to activity of the enzyme without active compounds (100%)
Procedure: The following compounds with formulae (II), (III), (IV) and (V) were tested as defined above, all in a concentration of 5 mM:
Tyrosinase is a membrane glycoprotein that is expressed in melanosomes, specialised organelles in the endocytic pathway through which the synthesis and assembly of melanin takes place. The synthesis of melanin from tyrosine takes place in pigment-producing cells, namely melanocytes. Melanin produced in melanosomes is transferred to keratinocytes through said processes. Melanin is a polymer that absorbs light within a broad spectrum of wavelengths, and protects keratinocytes from the harmful effects of UV radiations. A peroxidase is involved in the first phase of the reaction, which converts the amino acid into […] alanine or DOPA. The enzyme tyrosinase is involved in the subsequent phase of the biosynthesis pathway that produces dopaquinone. Melanin is synthesised starting from precursors of tyrosine and DOPA, through the enzyme tyrosinase, which presents both […] and oxidase functions. Tyrosine is converted into L-DOPA (dihydroxyphenylalanine) and, then, into dopaquinone, which is red, until the brown melanin polymer is obtained. In a first branch of the pathway dopaquinone is converted into black polymeric melanins, while the reaction with cysteine forms a series of polymers that are similar among them and are called red polymeric melanins.
REAGENT A (potassium phosphate buffer, 50 mM, pH 6.5, 25° C.):
REGENT B (L-tyrosine solution 1 mM):
REAGENT C (tyrosinase solution):
Prepare a solution A+B as described below:
10 mL of Reagent A (potassium phosphate buffer 50 mM)
10 mL of Reagent B (L-tyrosine 1 mM)
Vortex the solution and, if necessary, restore pH 6.5, at 25° C. with HCl 1M or NaOH.
Prepare the solutions with the various concentrations of the compounds to be tested, and preserve at 4° C. until use.
Defrost the tyrosinase solution and keep it on ice in the dark until use.
Mix, at ambient temperature, the solution of potassium phosphate buffer (50 mM, pH 6.5), the above solution A+B and the solutions that include the compounds of the formula (I) to be tested.
Use the following parameters:
Measuring mode: absorbance;
Execution settings: 700 seconds.
First read the enzymatic activity of tyrosinase when there is only L-tyrosine to verify the actual enzyme/mL units and have a basic reference to later assess the effects of the compound examined on enzyme activity:
1 replicates for the blank test (one blank test for each concentration to be tested);
2 replicates for the test (one test for each concentration to be tested).
Prepare the mixtures in separate cuvettes, as described below:
Test the examined compounds with formulae (II), (III), (IV) and (V), as specified below: […]
Calculating the Inhibition or Induction of Enzymatic Activity
[formula] df=dilution factor (30 because 0.1 mL/3 mL tot) 0.001=change of A280 nm/min per unit of L-tyrosine at pH 6.5, 25° C. in a 3 mL reaction mixture; 0.1=volume (mL) of enzyme used Unit/mg solid=unit/mL of enzyme: mg solid/mL of enzyme Unit/mg protein=unit/mL of enzyme: mg protein/mL of enzyme Definition of unit=increment of A280 nm/min equal to 0.001, at 25° C., pH 6.5 in a 3 mL reaction volume containing L-tyrosine.
The percentage of enzymatic activity was calculated for each tested compound, compared to the activity of the enzyme (100% enzymatic activity) failing the presence of active compounds.
The increment percentage of enzymatic activity was later calculated (% enzymatic activity−100).

[2] = tested on: Hair follicles (HF) in anagen phase VI with normal pigmentation; assay: Hair pigmentation in organ-cultured human hair follicles (quantitative Masson-Fontana melanin stain); format: cell-based
Procedure: The skin of the normal human scalp was taken from a person who was submitted to routine facial lifting surgery, after obtaining their informed consent. All experiments were performed in compliance with the Helsinki principles, with the Ethics Committee approval.
N^1-methyl-spermidine in the invention or the carrier as such (control group) were administered once every time the culture medium was changed, namely every 48 hours. The control compound administered was spermidine at a concentration of 0.5 μM.
The Masson-Fontana stain was administered to ensure histochemical visibility of melanin in frozen sections. Melanin was stained as brown granules and the degree of pigmentation was assessed with the quantitative Masson-Fontana technique. (Ito N., Ito T., Kromminga A., Bettermann A., Takigawa M., Kees F., Straub R. H., and Paus R. (2005): Human hair follicles display a functional equivalent of the hypothalamic-pituitary-adrenal axis and synthesise cortisol. (FASEB J 19, 1332-4)
This method is a highly sensitive and reliable indicator of variations in melanin synthesis, as proven by assays of enzymatic activity, and the expression of standard tyrosinase. […]
The intensity of the stain was analysed in a defined reference region of the hair follicle's pigmentation unit using the software ImageJ (National Institute of Health).

Row | Compound | Increment in enzymatic activity (%) [1] | Enzymatic activity (%) [1] | absolute pigmentation intensity in hair follicles compared to spermidine (Spd) ([2]; 0.5 μM vs spermidine 0.5 μM, FIG. 1) | melanin produced / (absolute) intensity of pigmentation in hair follicles compared to carrier ([2]; 0.5 and 1.5 μM, administered every 48 hours, Masson-Fontana stain, FIGS. 1 and 2)
1 | CCCNCCCCNCCCN [Propyl-spermidine, N-(3-aminopropyl)-N^1-propyl-1,4-butandiammine] | 31.29% | 131.29% |  | 
2 | NCCCNCCCCNC1CCCCC1 [Cyclohexyl-spermidine, N-(3-aminopropyl)-N^1-cyclohexyl-1,4-butandiammine] | 35.31% | 135.31% |  | 
3 | CCNCCCCNCCCN [Ethyl-spermidine, N-(3-aminopropyl)-N^1-ethyl-1,4-butandiammine] | 21.50% | 121.50% |  | 
4 | CNCCCCNCCCN [Methyl-spermidine, N-(3-aminopropyl)-N^1-methyl-1,4-butandiammine] | 5.16% | 105.16% | higher increase in absolute pigmentation intensity | increase in melanin produced
